{"source": "patent US20100209332A1", "about": "“Nonaqueous Chlorine Dioxide-Generating Compositions and Methods Related Thereto” (BASF Catalysts LLC, priority 2009, published 2010)", "origin": "cited, not measured here", "note": "Several values for one entry are separate records, joined by “and”; a condition that tells them apart may be missing. Equal entries are not always repeated.", "data": [{"settings": "sources: † clippercontrols.com URL, § Handbook of Chemistry and Physics, 52nd Ed.", "values": [{"smiles": "CCCCO", "note": "[Butyl alcohol]", "Dielectric Constant, at 18-25 deg C.": "17.1-17.8^†,§"}, {"smiles": "OCC(O)CO", "note": "[Glycerine]", "Dielectric Constant, at 18-25 deg C.": "42.5^†,§"}, {"smiles": "CC(C)O", "note": "[Isopropanol]", "Dielectric Constant, at 18-25 deg C.": "18.3 and 20.1"}, {"smiles": "CCCCCCCC(=O)O", "note": "[Octanoic acid]", "Dielectric Constant, at 18-25 deg C.": "3.2^†"}, {"smiles": "CCCCCCCC/C=C\\CCCCCCCC(=O)O", "note": "[Oleic acid]", "Dielectric Constant, at 18-25 deg C.": "2.5^†,§"}, {"smiles": "CC(O)CO", "note": "(stereo not shown) [Propylene glycol]", "Dielectric Constant, at 18-25 deg C.": "32^†,§"}, {"smiles": "O", "note": "[Water]", "Dielectric Constant, at 18-25 deg C.": "80.4 and 78.5"}]}]}
